# Measurements as given in US4118482A (priority 1977, dated 1978).
# Where two headings read alike, the source gives them in different places. Numbered stars: 1 amine (or outer) side, 2 acyl side, 3 side chain; on linkers, the order of the positions; unused ones are H or OH. Bridge positions count the residues as written; N and C are the ends. Square brackets hold non-standard residues; d marks the D form. Peptide text beside a SMILES is read from it. I, II: the chains in the order shown. Actinocin(9to1) = Cc1c2oc3c(C)ccc(C(=O)[*:1])c3nc-2c(C(=O)[*:2])c(N)c1=O; NMeV = CN[CH](C(=O)O)C(C)C; Aze = O=C(O)[CH]1CCN1; Sar = CNCC(=O)O
# Assays:
# [1] = tested on: advanced Ridgeway osteogenic sarcoma; conditions: cited from earlier work
# [2] = tested on: ADVANCED P388 LEUKEMIA; assay: Advanced P388 leukemia in mice, treatment Q4D x 3 at days 5, 9, 13; format: in vivo; conditions: 0.6 Mg/Kg/Inj., Q4D x 3 days 5, 9, 13, advanced P388
# From the text: (§1) The National Cancer Institute conducted a screening test on samples of both Azetomicin I (3' prolyl, 3' azet) and Azetomicin II (3', 3' azet) as well as on Dactinomycin (3', 3' prolyl) that is also known as Actinomycin D or C1. The Azetomicin and Dactinomycin molecules are identical, with the exception of the 3' amino acid position on the peptides, wherein the 3' positions, in the case of Dactinomycin are both prolyl; in the case of the Azetomicin I are prolyl and azetidine-2-carboxyl; and in the cae of Azetomicin II are both azetidine-2-carboxyl.
# ADVANCED P388 LEUKEMIA : Q4D × 3 AT DAYS 5, 9, 13 TREATMENT
# [3] = Toxicity per mg compared with Actinomicin D
# [4] = tested on: Rous sarcoma virus; assay: Development of visible tumors in chicks infected with Rous sarcoma virus, single injection; format: in vivo; conditions: injected once; compared with untreated or saline injected controls
# Method: In another test, both Azetomicin I and Azetomicin II, were injected once into chicks infected with Rous sarcoma virus. The development of visible tumors was decreased by over 80% as compared with untreated or saline injected controls.
# [5] = Storage stability in aqueous solution; format: physicochemical; conditions: 0°-25° C, pH range of 5-8, maintained in the dark
# Method: The major products of interest were determined to be Azetomicin I and Azetomycin II. They were stable after storage at 0°-25° C in aqueous solution in the pH range of 5-8 for at least 5 days when maintained in the dark.
# [6] = tested on: Bacillus subtilis, Staphylococcus aureus and Staphylococcus albus; assay: Inhibition of bacterial growth (cross section of gram-positive and gram-negative bacteria); format: cell-based
# [7] = tested on: P388 leukemia; assay: P388 leukemia in mice, treatment QD at days 1-9 (National Cancer Institute screen); format: in vivo; conditions: for 5 ILS* (increased life span) / 60 DAY "CURES" / SURVIAL TIME MEDIAN: QD days 1-9, P388 mice; for SURVIAL TIME MEDIAN: controls 10 days
# From the text: as §1
# P 388 LEUKEMIA : QD AT DAYS 1-9 TREATMENT
# [8] = schedule day 12, data of Southern Research Institute
smiles,measurement,setting,value
CN(C)/N=N/c1[nH]cnc1C(N)=O [DTIC],"""CURES"" (Number/Total)",[1]; [8],0/10
same,REGRESSION 50+%-PARTIAL (Number/Total),[1]; [8],0/10
same,REGRESSION COMPLETE (Number/Total),[1]; [8],0/10
Nc1ccn([C@@H]2O[C@H](CO)[C@@H](O)[C@@H]2O)c(=O)n1 [ARA-C],"""CURES"" (Number/Total)","[1]; schedule days 12,12,20(q3h)",0/10
same,REGRESSION 50+%-PARTIAL (Number/Total),"[1]; schedule days 12,12,20(q3h)",7/10
same,REGRESSION COMPLETE (Number/Total),"[1]; schedule days 12,12,20(q3h)",3/10
"Cc1c2oc3c(C)ccc(C(=O)NC4C(=O)NC(C(C)C)C(=O)N5CCC5C(=O)N(C)CC(=O)N(C)C(C(C)C)C(=O)OC4C)c3nc-2c(C(=O)NC2C(=O)NC(C(C)C)C(=O)N3CCC3C(=O)N(C)CC(=O)N(C)C(C(C)C)C(=O)OC2C)c(N)c1=O (centres unmarked) [AZETOMICIN-II, Azetomicin II] (I: TV[Aze][Sar][NMeV] / II: TV[Aze][Sar][NMeV]; ester I:1-I:C, II:1-II:C; linker I:N-II:N via Actinocin(9to1); configuration not given here)",5 ILS* (increased life span),[2],150%
same,"60 DAY ""CURES""",[2],0
same,SURVIAL TIME MEDIAN,[2]; controls 10 days,25 days
same,toxicity/mg. compared with Actinomicin D,[3],substantially less toxic/mg.
same,decrease of development of visible tumors,[4],over 80%
same,time stable after storage in aqueous solution,[5],at least 5 days
same,activity against bacterial growth relative to Actinomicin D,[6],50%
same,5 ILS* (increased life span),[7]; 0.05 Mg/Kg/Inj.,125%
same,"60 DAY ""CURES""",[7]; 0.05 Mg/Kg/Inj.,0%
same,SURVIAL TIME MEDIAN,[7]; 0.05 Mg/Kg/Inj.,22.5 days
same,5 ILS* (increased life span),[7]; 0.1 Mg/Kg/Inj.,130%
same,"60 DAY ""CURES""",[7]; 0.1 Mg/Kg/Inj.,12%
same,SURVIAL TIME MEDIAN,[7]; 0.1 Mg/Kg/Inj.,23 days
same,activity compared with Dactinomycin (summary of Table I),"[7]; P388 leukemia mice, Table I",roughly comparable in activity to Dactinomycin
O=c1[nH]cc(F)c(=O)[nH]1 [FLUOROURACIL],"""CURES"" (Number/Total)","[1]; schedule days 12,16,20,24",0/10
same,REGRESSION 50+%-PARTIAL (Number/Total),"[1]; schedule days 12,16,20,24",8/10
same,REGRESSION COMPLETE (Number/Total),"[1]; schedule days 12,16,20,24",5/10
O=P1(N(CCCl)CCCl)NCCCO1 (centres unmarked) [CYCLOPHOSPHAMIDE],"""CURES"" (Number/Total)",[1]; [8],3/8
same,REGRESSION 50+%-PARTIAL (Number/Total),[1]; [8],8/8
same,[…] (Number/Total),[1]; [8],8/8
O=NN(CCCl)C(=O)NC1CCCCC1 [CCNU],"""CURES"" (Number/Total)",[1]; [8],0/8
same,REGRESSION 50+%-PARTIAL (Number/Total),[1]; [8],0/8
same,REGRESSION COMPLETE (Number/Total),[1]; [8],0/8
Nc1ncn([C@@H]2O[C@H](CO)[C@@H](O)[C@H]2O)c(=O)n1 [AZACYTIDINE],"""CURES"" (Number/Total)","[1]; schedule days 12,16,20,24",0/7
same,REGRESSION 50+%-PARTIAL (Number/Total),"[1]; schedule days 12,16,20,24",0/7
same,REGRESSION COMPLETE (Number/Total),"[1]; schedule days 12,16,20,24",0/7
CO[C@@]12[C@H](COC(N)=O)C3=C(C(=O)C(C)=C(N)C3=O)N1C[C@@H]1N[C@@H]12 [MITOMYCIN-C],"""CURES"" (Number/Total)",[1]; [8],0/10
same,REGRESSION 50+%-PARTIAL (Number/Total),[1]; [8],0/10
same,REGRESSION COMPLETE (Number/Total),[1]; [8],0/10
C[C@]12C=CC(=O)C=C1CC[C@@H]1[C@@H]2C(=O)C[C@@]2(C)[C@H]1CC[C@]2(O)C(=O)CO [PREDNISONE],"""CURES"" (Number/Total)","[1]; schedule days 12,16,20",0/10
same,REGRESSION 50+%-PARTIAL (Number/Total),"[1]; schedule days 12,16,20",0/10
same,REGRESSION COMPLETE (Number/Total),"[1]; schedule days 12,16,20",0/10
CN(Cc1cnc2nc(N)nc(N)c2n1)c1ccc(C(=O)N[C@@H](CCC(=O)O)C(=O)O)cc1 [METHOTREXATE],"""CURES"" (Number/Total)","[1]; schedule days 12,16,20,24",0/10
same,REGRESSION 50+%-PARTIAL (Number/Total),"[1]; schedule days 12,16,20,24",0/10
same,REGRESSION COMPLETE (Number/Total),"[1]; schedule days 12,16,20,24",0/10
O=C(O)CCCc1ccc(N(CCCl)CCCl)cc1 [CHLORAMBUCIL],"""CURES"" (Number/Total)",[1]; [8],0/10
same,REGRESSION 50+%-PARTIAL (Number/Total),[1]; [8],0/10
same,REGRESSION COMPLETE (Number/Total),[1]; [8],0/10
COc1cccc2c1C(=O)c1c(O)c3c(c(O)c1C2=O)C[C@@](O)(C(=O)CO)C[C@@H]3O[C@H]1C[C@H](N)[C@H](O)[C@H](C)O1 [ADRIAMYCIN],"""CURES"" (Number/Total)",[1]; [8],0/8
same,REGRESSION 50+%-PARTIAL (Number/Total),[1]; [8],7/8
same,REGRESSION COMPLETE (Number/Total),[1]; [8],7/8
